For test [1], the target named is T1, Heat shock factor protein 1 (Mus musculus, UniProt P38532).
T1 sequence (P38532 whole entry): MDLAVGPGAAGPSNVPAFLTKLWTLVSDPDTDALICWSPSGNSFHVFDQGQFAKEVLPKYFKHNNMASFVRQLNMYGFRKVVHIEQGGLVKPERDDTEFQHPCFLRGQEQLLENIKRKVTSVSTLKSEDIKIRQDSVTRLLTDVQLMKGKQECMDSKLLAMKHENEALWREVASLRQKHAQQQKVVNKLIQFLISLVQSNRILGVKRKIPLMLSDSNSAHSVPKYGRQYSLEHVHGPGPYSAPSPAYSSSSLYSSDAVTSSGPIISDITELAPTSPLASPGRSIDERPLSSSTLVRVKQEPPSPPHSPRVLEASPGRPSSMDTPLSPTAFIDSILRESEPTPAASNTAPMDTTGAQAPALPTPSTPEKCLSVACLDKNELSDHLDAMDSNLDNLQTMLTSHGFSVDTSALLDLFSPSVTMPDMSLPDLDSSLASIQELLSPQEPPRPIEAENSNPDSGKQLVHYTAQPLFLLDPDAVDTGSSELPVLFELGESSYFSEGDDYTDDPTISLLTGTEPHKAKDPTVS
The test can be described thus: decrease of HSF1-responsive luciferase luminescence – cell-based, NIH3T3, dose retest, confirmation (AID 2382).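 Also: NIH3T3 fibroblasts with HSF1-driven luciferase reporter stressed by proteasome inhibitor MG132; luminescence from HSF1-driven luciferase expression after 8 hours of MG132 stress.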 Format: functional.

In test [2] the target is T2, Short transient receptor potential channel 4 (Mus musculus, UniProt Q9QUQ5).
T2 sequence (Q9QUQ5 whole entry): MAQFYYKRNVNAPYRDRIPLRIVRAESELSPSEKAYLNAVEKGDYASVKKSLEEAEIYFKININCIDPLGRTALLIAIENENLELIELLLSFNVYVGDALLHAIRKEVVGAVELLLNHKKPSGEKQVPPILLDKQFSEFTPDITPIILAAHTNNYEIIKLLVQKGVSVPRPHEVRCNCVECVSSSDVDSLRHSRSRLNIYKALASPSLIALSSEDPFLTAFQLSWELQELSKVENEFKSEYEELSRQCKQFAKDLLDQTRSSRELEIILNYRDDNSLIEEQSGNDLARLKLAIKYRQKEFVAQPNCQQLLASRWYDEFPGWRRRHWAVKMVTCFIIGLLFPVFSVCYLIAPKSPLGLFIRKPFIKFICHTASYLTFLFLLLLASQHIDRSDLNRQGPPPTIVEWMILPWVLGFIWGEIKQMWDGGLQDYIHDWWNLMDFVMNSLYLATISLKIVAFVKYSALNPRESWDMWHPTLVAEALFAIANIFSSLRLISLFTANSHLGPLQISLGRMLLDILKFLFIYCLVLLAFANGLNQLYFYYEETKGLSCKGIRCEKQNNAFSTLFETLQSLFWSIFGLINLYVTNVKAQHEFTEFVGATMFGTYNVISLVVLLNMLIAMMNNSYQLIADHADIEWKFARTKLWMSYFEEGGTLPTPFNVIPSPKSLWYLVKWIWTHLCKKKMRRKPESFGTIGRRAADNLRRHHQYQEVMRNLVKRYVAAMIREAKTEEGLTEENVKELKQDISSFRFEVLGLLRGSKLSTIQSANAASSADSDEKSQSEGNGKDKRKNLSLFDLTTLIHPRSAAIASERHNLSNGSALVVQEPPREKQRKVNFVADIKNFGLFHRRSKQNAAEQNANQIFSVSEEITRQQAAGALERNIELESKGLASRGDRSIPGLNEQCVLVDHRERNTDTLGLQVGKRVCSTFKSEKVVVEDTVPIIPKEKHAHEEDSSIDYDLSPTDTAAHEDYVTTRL
The test can be described thus: potentiation of DAMGO-evoked TRPC4 calcium signal – cell-based, HEK293 TRPC4/mu-opioid, Fluo-4 calcium, EC20 DAMGO, dose response (AID 434941).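 Also: HEK293 cells coexpressing TRPC4 and mu opioid receptor stimulated by EC20 DAMGO.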 Format: functional.

A further test deals with HEK293. Put plainly: EBV LMP1 TES2 canonical NF-kB signalling blockers – cell-based, HEK293, luciferase, cherry-pick, dose response (AID 588343). As to conditions: Homo sapiens. Type of test: functional.
A further test concerns the target Mu-type opioid receptor (Homo sapiens, UniProt P35372). The test can be described thus: SAR Analysis of Antagonists of the MOR Receptor using an Image-Based Assay - Set 3. [Related pubchem assays (depositor defined):AID1777, AID1785, AID1786, AID1966, AID2133, AID2136, AID2284, AID2285, AID2420]. Type of test: functional.
The target in test [3] is Delta-type opioid receptor (Homo sapiens, UniProt P41143). Put plainly: SAR Analysis of Antagonists of the DOR Receptor using an Image-Based Assay - Set 3. [Related pubchem assays (depositor defined):AID1777, AID1785]. Type of test: functional.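 Also: U2OS cells expressing DOR1 and beta-arrestin GFP stimulated with 100 nM SNC80; imaging of GFP-tagged beta-arrestin moving into spots after receptor activation.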
Sequence of Delta-type opioid receptor (P41143 whole entry): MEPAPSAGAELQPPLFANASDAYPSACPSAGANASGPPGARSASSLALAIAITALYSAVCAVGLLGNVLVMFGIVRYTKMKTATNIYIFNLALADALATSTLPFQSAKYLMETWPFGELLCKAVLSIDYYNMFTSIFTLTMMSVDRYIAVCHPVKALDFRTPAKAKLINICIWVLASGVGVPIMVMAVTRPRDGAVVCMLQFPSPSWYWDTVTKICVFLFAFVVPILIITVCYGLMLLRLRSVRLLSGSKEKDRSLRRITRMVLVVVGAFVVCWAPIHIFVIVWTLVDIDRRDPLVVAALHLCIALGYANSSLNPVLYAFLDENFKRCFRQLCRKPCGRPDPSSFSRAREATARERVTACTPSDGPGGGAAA
For test [4], the target named is T3, Kappa-type opioid receptor (Homo sapiens, UniProt P41145). The test can be described thus: SAR analysis of small molecule antagonists of the kappa opioid receptor via a luminescent beta-arrestin assay - Set 3. [Related pubchem assays (depositor defined):AID1777, AID1778, AID1785, AID1786, AID1966, AID2133, AID2136, AID2285, AID2495]. Type of test: functional.
T3 sequence (P41145 whole entry): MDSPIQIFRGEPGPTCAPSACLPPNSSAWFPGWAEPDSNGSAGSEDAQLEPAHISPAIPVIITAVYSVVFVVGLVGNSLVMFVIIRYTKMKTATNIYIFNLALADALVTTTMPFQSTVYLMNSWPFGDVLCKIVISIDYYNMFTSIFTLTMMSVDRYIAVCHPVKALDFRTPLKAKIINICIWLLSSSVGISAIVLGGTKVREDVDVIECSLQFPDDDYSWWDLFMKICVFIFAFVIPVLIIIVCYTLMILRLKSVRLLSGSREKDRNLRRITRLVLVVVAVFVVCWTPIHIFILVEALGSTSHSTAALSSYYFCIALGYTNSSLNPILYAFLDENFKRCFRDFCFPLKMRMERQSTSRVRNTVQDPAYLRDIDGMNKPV

The target in test [5] is T3, Kappa-type opioid receptor. The test can be described thus: SAR analysis of Antagonists of the Kappa Opioid Receptor (KOR) using an Image-Based Assay - Set 3. [Related pubchem assays (depositor defined):AID1777, AID1785]. Type of test: functional.
Another test addresses Integrin alpha-4 (Homo sapiens, UniProt P13612). The test can be described thus: allosteric modulators of alpha4 integrin VLA-4 – cell-based, LIBS antibody binding, flow cytometry, SAR follow-up (AID 488791). Type of test: functional. (In general: Flow cytometry measures light scatter and fluorescence of single cells or particles in a stream.)
In test [6] the target is T4, Microphthalmia-associated transcription factor (Homo sapiens, UniProt O75030).
T4 sequence (O75030 whole entry): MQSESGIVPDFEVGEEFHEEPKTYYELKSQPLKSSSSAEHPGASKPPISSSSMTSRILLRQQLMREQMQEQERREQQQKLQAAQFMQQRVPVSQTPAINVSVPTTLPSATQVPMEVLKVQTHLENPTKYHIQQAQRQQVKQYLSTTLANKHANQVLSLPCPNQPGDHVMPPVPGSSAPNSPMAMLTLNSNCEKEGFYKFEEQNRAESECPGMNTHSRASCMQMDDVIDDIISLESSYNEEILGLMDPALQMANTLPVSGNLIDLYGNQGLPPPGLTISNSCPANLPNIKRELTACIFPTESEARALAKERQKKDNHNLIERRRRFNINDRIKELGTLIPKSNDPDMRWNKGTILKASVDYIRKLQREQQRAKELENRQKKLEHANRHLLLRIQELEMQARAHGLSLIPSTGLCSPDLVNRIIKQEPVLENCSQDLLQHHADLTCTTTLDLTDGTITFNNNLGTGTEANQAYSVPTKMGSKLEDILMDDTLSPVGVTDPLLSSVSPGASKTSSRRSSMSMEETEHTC
The test can be described thus: reducers of TRPM1 reporter luminescence, concentration series – cell-based, SK-MEL-5, cherry-picked, set 3, MITF inhibitor project, dose response (AID 493073).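 Also: SK-MEL-5 melanoma cells with luciferase driven by the MITF target TRPM1 promoter.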 Format: functional.

Test [7] concerns A-375. Put plainly: MITF: Counter assay: A375 proliferation Measured in Cell-Based System Using Plate Reader - 2084-03_Inhibitor_Dose_DryPowder_Activity. [Related pubchem assays (depositor defined):AID488944]. As to conditions: Homo sapiens. Format: functional.
The next test relates to Vero. The test can be described thus: cells. Format: functional. As to conditions: Chlorocebus sabaeus.
The test system of test [8] is A-375. The test can be described thus: proliferation inhibition in MITF-low A375 cells – cell-based, cherry-pick samples, set 2, counter-screen for MITF modulator project, dose response (AID 540335). Type of test: functional. As to conditions: Homo sapiens. Background: The purpose of a counterscreen is to sort out artefacts and off-target activity.
For test [9], the target named is Voltage-dependent T-type calcium channel subunit alpha-1H (Homo sapiens, UniProt O95180). Put plainly: human CACNA1H calcium influx blockade – cell-based, synthetic library set 1, calcium flux (AID 493022). Type of test: functional. (In general: Calcium assays in cells follow changes in intracellular calcium, usually with a dye or a luminescent sensor.)
The next test concerns the target T5, Caspase-3 (Homo sapiens, UniProt P42574).
T5 sequence (P42574 whole entry): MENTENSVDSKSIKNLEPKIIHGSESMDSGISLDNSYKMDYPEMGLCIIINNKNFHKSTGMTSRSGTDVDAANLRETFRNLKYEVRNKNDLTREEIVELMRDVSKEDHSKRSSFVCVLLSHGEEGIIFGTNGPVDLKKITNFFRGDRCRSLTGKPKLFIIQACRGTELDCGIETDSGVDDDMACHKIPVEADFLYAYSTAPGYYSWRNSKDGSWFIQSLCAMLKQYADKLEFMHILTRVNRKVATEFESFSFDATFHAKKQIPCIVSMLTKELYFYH
The test can be described thus: activation of caspase-3 zymogen – biochemical, absorbance, dose response (AID 489014).

The target in a further test is Caspase-7 (Homo sapiens, UniProt P55210). The test can be described thus: activation of caspase-7 zymogen – biochemical, absorbance, counter-screen for procaspase-3 activator project, dose response (AID 489013).
Sequence of Caspase-7 (P55210 24-198 limits assumed): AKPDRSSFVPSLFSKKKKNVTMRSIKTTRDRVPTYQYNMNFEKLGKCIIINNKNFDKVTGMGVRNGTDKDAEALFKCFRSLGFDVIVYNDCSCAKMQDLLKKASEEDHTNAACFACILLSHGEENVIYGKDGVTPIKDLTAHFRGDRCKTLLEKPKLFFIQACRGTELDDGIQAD
Sequence of Caspase-7 (P55210 207-303 limits assumed): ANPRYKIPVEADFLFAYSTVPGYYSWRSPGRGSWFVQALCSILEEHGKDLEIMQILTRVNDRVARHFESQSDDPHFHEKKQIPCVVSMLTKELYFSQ
For test [10], the target named is DNA dC->dU-editing enzyme APOBEC-3A (Homo sapiens, UniProt P31941). The test can be described thus: A3A deaminase inhibition for selectivity – biochemical, dose response (AID 504722). Format: functional.
Sequence of DNA dC->dU-editing enzyme APOBEC-3A (P31941 whole entry): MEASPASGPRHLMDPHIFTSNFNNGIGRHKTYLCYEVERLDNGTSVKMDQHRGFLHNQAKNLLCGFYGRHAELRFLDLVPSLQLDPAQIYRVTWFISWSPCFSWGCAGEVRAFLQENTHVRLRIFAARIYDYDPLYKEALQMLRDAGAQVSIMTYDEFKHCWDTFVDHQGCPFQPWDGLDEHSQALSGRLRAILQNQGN
The target of test [11] is DNA dC->dU-editing enzyme APOBEC-3G (Homo sapiens, UniProt Q9HC16). Put plainly: Dose Response confirmation of small molecule APOBEC3G DNA Deaminase Inhibitors via a fluorescence-based single-stranded DNA deaminase assay. [Related pubchem assays (depositor defined):AID493012, AID493028]. Type of test: functional.
Sequence of DNA dC->dU-editing enzyme APOBEC-3G (Q9HC16 whole entry): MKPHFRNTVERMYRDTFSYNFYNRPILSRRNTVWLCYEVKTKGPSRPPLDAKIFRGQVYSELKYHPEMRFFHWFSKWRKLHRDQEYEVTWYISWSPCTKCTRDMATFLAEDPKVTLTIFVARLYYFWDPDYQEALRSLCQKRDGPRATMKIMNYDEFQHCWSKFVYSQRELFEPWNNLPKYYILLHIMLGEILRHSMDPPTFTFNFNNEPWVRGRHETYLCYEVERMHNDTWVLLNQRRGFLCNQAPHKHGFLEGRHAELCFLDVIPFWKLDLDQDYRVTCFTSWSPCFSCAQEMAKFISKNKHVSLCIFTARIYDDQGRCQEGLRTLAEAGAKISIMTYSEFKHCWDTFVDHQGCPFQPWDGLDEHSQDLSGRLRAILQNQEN
Test [12] concerns the target T6, Rac GTPase-activating protein 1 (Homo sapiens, UniProt Q9H0H5).
T6 sequence (Q9H0H5 whole entry): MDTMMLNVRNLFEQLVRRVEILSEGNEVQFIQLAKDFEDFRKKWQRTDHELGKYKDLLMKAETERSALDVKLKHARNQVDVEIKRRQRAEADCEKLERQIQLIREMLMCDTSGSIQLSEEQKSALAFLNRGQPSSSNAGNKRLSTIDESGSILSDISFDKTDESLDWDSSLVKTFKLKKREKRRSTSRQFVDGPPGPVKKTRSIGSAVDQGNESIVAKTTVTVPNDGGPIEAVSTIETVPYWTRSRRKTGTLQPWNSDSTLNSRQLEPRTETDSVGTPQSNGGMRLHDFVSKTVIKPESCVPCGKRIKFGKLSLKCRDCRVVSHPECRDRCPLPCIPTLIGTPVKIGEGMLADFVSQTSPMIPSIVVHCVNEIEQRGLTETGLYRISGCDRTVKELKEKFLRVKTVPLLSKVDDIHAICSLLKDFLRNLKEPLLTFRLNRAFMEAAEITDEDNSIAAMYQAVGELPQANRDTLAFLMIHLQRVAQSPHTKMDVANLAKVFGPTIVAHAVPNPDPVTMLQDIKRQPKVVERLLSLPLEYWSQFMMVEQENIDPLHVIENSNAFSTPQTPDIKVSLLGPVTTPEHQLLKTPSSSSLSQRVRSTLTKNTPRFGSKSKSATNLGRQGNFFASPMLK
The test can be described thus: blockers of MgcRacGAP-driven Rac1 GTP hydrolysis – biochemical, ADP Hunter fluorescence, primary and confirmatory, confirmation (AID 624330). Type of test: functional.

Test [13] has as its target G-protein coupled receptor 35 (Homo sapiens, UniProt Q9HC97). The test can be described thus: SAR analysis of Antagonists of the GPR35 Receptor using an Image-Based Assay - Set 5. [Related pubchem assays (depositor defined):AID2058, AID2079]. Type of test: functional.
Test [14] addresses G-protein coupled receptor 55 (Homo sapiens, UniProt Q9Y2T6). The test can be described thus: SAR Analysis of Selective Antagonists of GPR55 using an Image-Based Assay - Set 3. [Related pubchem assays (depositor defined):AID2058, AID2079]. Format: functional.

Active and inactive are the calls of the source.

Sequence of G-protein coupled receptor 35 (Q9HC97 whole entry): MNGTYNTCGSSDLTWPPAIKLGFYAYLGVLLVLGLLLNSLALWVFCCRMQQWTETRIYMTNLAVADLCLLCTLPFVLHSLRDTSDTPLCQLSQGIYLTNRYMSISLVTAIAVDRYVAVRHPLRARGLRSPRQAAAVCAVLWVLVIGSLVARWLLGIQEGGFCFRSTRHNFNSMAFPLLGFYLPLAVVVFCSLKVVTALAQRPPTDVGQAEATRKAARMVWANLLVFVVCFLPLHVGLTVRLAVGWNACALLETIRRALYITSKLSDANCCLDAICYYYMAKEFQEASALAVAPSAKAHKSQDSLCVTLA
Sequence of G-protein coupled receptor 55 (Q9Y2T6 whole entry): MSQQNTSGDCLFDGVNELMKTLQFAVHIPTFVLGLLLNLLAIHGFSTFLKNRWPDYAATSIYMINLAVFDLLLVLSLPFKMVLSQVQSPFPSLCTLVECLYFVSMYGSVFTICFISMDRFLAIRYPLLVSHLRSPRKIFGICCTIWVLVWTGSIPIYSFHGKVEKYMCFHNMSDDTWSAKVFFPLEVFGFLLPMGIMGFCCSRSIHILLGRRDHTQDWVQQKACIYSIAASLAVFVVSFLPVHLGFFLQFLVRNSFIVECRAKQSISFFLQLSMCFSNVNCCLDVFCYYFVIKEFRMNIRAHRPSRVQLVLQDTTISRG
Sequence of Integrin alpha-4 (P13612 whole entry): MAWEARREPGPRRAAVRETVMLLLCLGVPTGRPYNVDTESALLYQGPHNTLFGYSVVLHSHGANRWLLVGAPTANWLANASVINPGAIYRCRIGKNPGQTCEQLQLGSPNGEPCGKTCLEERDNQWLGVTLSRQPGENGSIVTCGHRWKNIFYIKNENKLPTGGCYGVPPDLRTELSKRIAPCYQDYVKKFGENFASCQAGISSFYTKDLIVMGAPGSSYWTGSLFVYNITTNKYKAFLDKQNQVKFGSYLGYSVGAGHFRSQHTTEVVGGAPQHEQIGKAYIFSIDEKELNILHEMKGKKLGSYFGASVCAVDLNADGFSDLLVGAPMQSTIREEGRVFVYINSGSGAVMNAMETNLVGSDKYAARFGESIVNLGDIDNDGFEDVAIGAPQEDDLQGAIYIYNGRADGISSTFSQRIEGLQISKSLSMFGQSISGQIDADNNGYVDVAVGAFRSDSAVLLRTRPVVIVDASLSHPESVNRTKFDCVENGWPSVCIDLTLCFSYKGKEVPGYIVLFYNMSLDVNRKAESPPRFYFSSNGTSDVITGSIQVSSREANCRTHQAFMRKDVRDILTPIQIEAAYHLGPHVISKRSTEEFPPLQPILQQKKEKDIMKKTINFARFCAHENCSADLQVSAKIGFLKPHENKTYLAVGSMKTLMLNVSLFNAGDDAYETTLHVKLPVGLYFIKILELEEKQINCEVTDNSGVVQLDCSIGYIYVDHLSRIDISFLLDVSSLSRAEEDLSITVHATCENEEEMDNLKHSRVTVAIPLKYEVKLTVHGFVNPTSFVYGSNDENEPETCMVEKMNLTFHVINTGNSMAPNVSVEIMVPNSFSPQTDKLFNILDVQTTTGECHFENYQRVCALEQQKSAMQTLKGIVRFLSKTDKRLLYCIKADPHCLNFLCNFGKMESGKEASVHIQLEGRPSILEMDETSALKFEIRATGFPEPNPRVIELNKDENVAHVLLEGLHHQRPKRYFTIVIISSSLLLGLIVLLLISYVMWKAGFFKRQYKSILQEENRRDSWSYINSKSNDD
Sequence of Mu-type opioid receptor (P35372 whole entry): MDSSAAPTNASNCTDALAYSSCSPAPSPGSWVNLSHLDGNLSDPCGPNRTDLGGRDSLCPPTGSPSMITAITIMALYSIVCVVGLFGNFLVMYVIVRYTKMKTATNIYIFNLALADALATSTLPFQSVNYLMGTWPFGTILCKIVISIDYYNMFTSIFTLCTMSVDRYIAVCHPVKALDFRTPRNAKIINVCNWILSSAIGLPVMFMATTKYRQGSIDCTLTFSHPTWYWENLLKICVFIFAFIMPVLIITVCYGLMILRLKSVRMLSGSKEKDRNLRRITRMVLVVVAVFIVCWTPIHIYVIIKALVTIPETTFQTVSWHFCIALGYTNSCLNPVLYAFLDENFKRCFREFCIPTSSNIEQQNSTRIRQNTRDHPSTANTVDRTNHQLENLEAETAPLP

A word on the EC50: it is the concentration that produces a half-maximal response. One may read the AC50 as the concentration at which the activity in the assay is half-maximal. Consider `N#CC1=C(N)C(C#N)(C#N)C(c2cccnc2)C2CC(c3ccccc3)CC=C12` (stereo not given), for which the figures for the concentration for a half-maximal effect (EC50) in test [1] and in [2] were > 195 µM (not active) and 4.73 µM (active), respectively. In the test with HEK293, the half-maximal activity concentration (AC50) is 10.5 µM (active).
As a reminder, the IC50 is the concentration at which inhibition is half-maximal. Turning to `CCc1ccc(S(=O)(=O)NCc2ccc(C(=O)NCCN(Cc3ccccc3)C(C)CC)cc2)cc1` (stereo not given), the IC50 on Mu-type opioid receptor was > 32 µM (inactive); in [3] it was > 32 µM (inactive); in test [4], 1.42 µM (active); in test [5], 0.47 µM (active).
In general, CC50 refers to the concentration at which the toxic effect on the cells reaches its halfway point. For the molecule `CCOCCCNC(=O)/C(C#N)=C/c1ccc(Cl)c([N+](=O)[O-])c1`, the EC50 on Integrin alpha-4 was > 90.8 µM (inactive). Besides, the AC50 in [6] is 7.38 µM (active); with A-375 [7], > 35 µM (active); in the test with A-375 [8] it was > 35 µM (active). Also, the 50% cytotoxic concentration (CC50) in the test on Vero is > 25 µM (active).
`O=C(COc1ccc(Cl)cc1)Nc1nnc(-c2ccc3ccccc3c2)o1`: the concentration for a half-maximal effect (EC50) in [9] was 10 µM (active).
Regarding `CC(=O)NCCc1nc2ccccc2n1Cc1ccc(C)cc1`, the EC50 at Caspase-3 and at Caspase-7 was > 85.2 µM (inactive) in each case.
In the case of `O=[N+]([O-])c1cccc(/C=N/n2c(S)nnc2-c2cccnc2)c1`, the IC50 is > 100 µM (inactive) in test [10], 2.33 µM (active) in test [11] and 31.9 µM (active) in test [12].
For the molecule `COC(=O)c1cnn(-c2ccccc2)c1/C=N/NC(=S)NC(C)(C)C`, the values for the IC50 in test [13] and in test [14] were 0.307 µM (active) and 6.58 µM (active), respectively.

For the origin of these results see ChEMBL document CHEMBL1201862, “PubChem BioAssay data set” (2004).
